# Data from the supplement of paper PMC10307832.
# Assays:
# Assay in all cases: relative viability (nuclei count vs DMSO), 5 days (fraction); higher = more cells survive
# Kobe2602 = compound: C1=CC(=CC=C1NC(=S)NNC2=C(C=C(C=C2[N+](=O)[O-])C(F)(F)F)[N+](=O)[O-])F [Kobe2602]
# Method in brief: (§1)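 Cells of lung cancer lines were placed in 1536-well plates and kept overnight at 37 °C. Pinning then delivered five library-drug doses (not always all listed), spaced by √10, onto plates anchored with vehicle, and the cells were left 5 days without changing medium. One step fixed, permeabilised and stained them with Hoechst, and MetaXpress counted nuclei in 4× images. Viability, as a median over plates, is treated-well nuclei divided by vehicle-well nuclei, with acceptance only at control CV below 25% and at least one doubling.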
# Cabozantinib = compound: COc1cc2nccc(Oc3ccc(NC(=O)C4(C(=O)Nc5ccc(F)cc5)CC4)cc3)c2cc1OC [Cabozantinib]
# Method in brief: as §1
# Zosuquidar = compound: O[C@@H](COc1cccc2ncccc12)CN1CCN([C@@H]2c3ccccc3[C@@H]3[C@H](c4ccccc42)C3(F)F)CC1 [Zosuquidar]
# Method in brief: as §1
# Kobe2602 + Foretinib = compound: C1=CC(=CC=C1NC(=S)NNC2=C(C=C(C=C2[N+](=O)[O-])C(F)(F)F)[N+](=O)[O-])F [Kobe2602] + COc1cc2c(Oc3ccc(NC(=O)C4(C(=O)Nc5ccc(F)cc5)CC4)cc3F)ccnc2cc1OCCCN1CCOCC1 [Foretinib] (partner 0.25 µM)
# Method in brief: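 Lung cancer cell lines in 1536-well plates got either a single drug or a fixed anchor-drug dose together with five library-drug doses (not always all listed) in √10 steps, by pin tool, on the day after seeding. Nuclei were counted after 5 days, and relative viability is the treated-to-vehicle ratio of nuclei counts. Values are medians of duplicate plates.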
Cell Line,relative viability (Kobe2602; 0.2 µM),relative viability (Kobe2602; 0.6325 µM),relative viability (Kobe2602; 2 µM),relative viability (Kobe2602; 6.325 µM),relative viability (Kobe2602; 20 µM),relative viability (Cabozantinib; 0.02 µM),relative viability (Cabozantinib; 0.06325 µM),relative viability (Cabozantinib; 0.2 µM),relative viability (Cabozantinib; 0.6325 µM),relative viability (Cabozantinib; 2 µM),relative viability (Zosuquidar; 0.01 µM),relative viability (Zosuquidar; 0.03162 µM),relative viability (Zosuquidar; 0.1 µM),relative viability (Zosuquidar; 0.3162 µM),relative viability (Zosuquidar; 1 µM),relative viability (Kobe2602 + Foretinib; first compound 0.2 µM),relative viability (Kobe2602 + Foretinib; first compound 0.6325 µM),relative viability (Kobe2602 + Foretinib; first compound 2 µM),relative viability (Kobe2602 + Foretinib; first compound 6.325 µM),relative viability (Kobe2602 + Foretinib; first compound 20 µM)
NCI-H2347,1.04,1.02,1.01,1.06,1.07,1.15,1.14,1.06,0.886,0.961,1,1.05,0.854,1.11,0.991,1.32,1.38,0.83,0.63,0.868
LXF-289,1.03,1.04,0.99,0.985,0.991,1.04,1.02,0.974,1.05,1.02,1.01,1.02,1.01,1.02,0.97,0.959,0.943,0.984,0.941,1.01
NCI-H1563,0.899,1,0.96,0.971,0.981,0.99,0.977,1.04,0.915,1.01,0.936,0.929,0.974,1.13,0.865,0.996,0.928,0.964,1.02,0.996
EKVX,0.968,1.02,0.922,0.976,1.09,0.919,1.12,0.915,1.01,1.1,0.952,0.961,0.737,1.02,0.97,1.05,0.753,0.7,0.839,1.03
IA-LM,0.932,1.08,0.923,0.895,0.929,1.21,1.09,0.9,1.04,1.27,0.939,1.01,0.838,0.945,0.865,1.09,1.01,0.953,1.24,1.01
ABC-1,0.941,1.1,0.769,1.06,1.04,0.902,1.05,0.993,0.875,0.887,0.926,0.841,1.04,0.986,0.911,0.957,0.922,–,0.93,1.3
NCI-H650,0.913,1.11,0.885,0.986,0.905,0.745,0.966,1.12,0.86,0.899,1.02,0.836,0.807,1.12,0.851,1.1,1.01,1.05,1.05,0.907
NCI-H1734,1.05,1.05,0.973,0.987,1.1,0.92,1.01,1.11,1.02,0.938,1,1,0.928,1.08,0.938,0.843,0.938,0.978,0.901,0.855
LOU-NH91,0.993,1.05,0.912,0.999,1.04,0.919,1.13,0.885,0.926,0.975,0.888,0.953,0.775,1.01,0.922,0.95,0.964,0.954,0.9,0.92
SK-MES-1,0.96,1.05,0.964,0.97,0.855,0.981,1.14,0.986,1.03,0.953,0.998,0.993,0.912,1.02,1.04,0.922,0.99,0.918,0.99,0.898
NCI-H2170,1.03,0.958,0.974,0.992,0.871,0.991,1,0.864,1.02,1.04,0.989,1,0.932,0.971,0.954,0.966,1.04,1.01,1.01,0.963
NCI-H460,1.03,0.955,0.986,1.04,0.963,1.05,1.06,1.05,0.976,1.03,0.993,0.964,0.969,1.02,0.974,1.07,1,0.978,1.02,0.999
SK-LU-1,1,1.13,0.937,1.04,1.1,0.97,1.24,1.08,0.926,0.942,1.1,1.02,0.962,1.11,1.07,0.78,0.911,0.81,0.834,0.872
EPLC-272H,0.98,1.16,0.952,1.02,1.04,0.921,1.17,0.821,0.872,0.856,0.963,0.995,0.781,1.06,0.892,0.41,0.937,0.667,0.668,0.796
A-427,1.03,1.12,0.962,1.04,1.06,0.996,1.01,1.02,0.972,0.98,1.02,1.01,0.801,1.14,0.96,0.983,1.21,1.06,1.1,1.08
